What was measured:
[1] = molecular target: T1, Alpha-2A adrenergic receptor (Homo sapiens, UniProt P08913); format: cell membranes, Sf9, Membrane; conditions: for Ki: read-out: Ki; on all read-outs here: in other assays of this panel Not Active means under 50% inhibition at 10 µM
T1 sequence (P08913 whole entry): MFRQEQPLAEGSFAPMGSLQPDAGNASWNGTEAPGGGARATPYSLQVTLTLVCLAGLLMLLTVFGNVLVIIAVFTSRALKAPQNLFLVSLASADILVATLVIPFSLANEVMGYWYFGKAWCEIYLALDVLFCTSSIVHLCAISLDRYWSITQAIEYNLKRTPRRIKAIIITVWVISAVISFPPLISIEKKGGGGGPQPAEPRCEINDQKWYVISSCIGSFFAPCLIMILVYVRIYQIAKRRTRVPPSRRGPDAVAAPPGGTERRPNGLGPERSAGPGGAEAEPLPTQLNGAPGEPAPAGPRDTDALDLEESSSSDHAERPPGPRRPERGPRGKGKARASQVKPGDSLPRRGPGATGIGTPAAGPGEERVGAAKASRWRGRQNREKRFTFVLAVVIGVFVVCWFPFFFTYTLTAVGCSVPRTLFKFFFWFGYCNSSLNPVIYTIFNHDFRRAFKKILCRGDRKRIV

[2] = molecular target: Beta-3 adrenergic receptor (Homo sapiens, UniProt P13945); assay: DRUGMATRIX: Adrenergic beta3 radioligand binding (ligand: [125I] Cyanopindolol); format: cell membranes, HEK293, Membrane; conditions: Not Active = under 50% inhibition at 10 µM
Chain of Beta-3 adrenergic receptor (P13945 whole entry): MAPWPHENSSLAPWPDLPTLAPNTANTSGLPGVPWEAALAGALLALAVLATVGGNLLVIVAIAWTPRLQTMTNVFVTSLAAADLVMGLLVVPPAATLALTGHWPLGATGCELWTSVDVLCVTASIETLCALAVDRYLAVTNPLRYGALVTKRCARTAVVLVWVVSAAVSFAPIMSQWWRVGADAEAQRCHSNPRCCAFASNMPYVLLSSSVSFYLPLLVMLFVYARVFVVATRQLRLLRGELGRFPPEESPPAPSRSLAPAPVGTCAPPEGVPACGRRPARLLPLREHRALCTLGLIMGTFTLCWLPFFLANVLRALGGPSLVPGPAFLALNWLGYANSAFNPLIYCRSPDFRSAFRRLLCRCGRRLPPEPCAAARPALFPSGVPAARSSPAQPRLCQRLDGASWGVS

[3] = molecular target: 5-hydroxytryptamine receptor 4 (Cavia porcellus, UniProt O70528); format: cell membranes, Dunkin-Hartley, Striatum, Membrane; conditions: for Ki: read-out: Ki; on all read-outs here: in other assays of this panel Not Active means under 50% inhibition at 10 µM
Chain of 5-hydroxytryptamine receptor 4 (O70528 whole entry): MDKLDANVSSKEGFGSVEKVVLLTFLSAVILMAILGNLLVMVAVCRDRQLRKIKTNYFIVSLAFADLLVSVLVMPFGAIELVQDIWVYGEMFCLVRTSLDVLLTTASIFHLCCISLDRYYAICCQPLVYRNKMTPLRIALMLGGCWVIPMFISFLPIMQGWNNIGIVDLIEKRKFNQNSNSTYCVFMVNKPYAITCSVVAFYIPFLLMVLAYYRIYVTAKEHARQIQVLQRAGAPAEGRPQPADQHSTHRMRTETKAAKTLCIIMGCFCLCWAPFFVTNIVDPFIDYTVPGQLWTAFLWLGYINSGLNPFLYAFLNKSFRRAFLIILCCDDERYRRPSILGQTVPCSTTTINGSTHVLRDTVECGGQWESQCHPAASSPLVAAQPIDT

D(1A) dopamine receptor = D(1A) dopamine receptor (Homo sapiens, UniProt P21728); assay: DRUGMATRIX: Dopamine D1 radioligand binding (ligand: [3H] SCH-23390); format: cell membranes, CHO, Membrane; conditions: cho; Not Active = under 50% inhibition at 10 µM
Chain of D(1A) dopamine receptor (P21728 whole entry): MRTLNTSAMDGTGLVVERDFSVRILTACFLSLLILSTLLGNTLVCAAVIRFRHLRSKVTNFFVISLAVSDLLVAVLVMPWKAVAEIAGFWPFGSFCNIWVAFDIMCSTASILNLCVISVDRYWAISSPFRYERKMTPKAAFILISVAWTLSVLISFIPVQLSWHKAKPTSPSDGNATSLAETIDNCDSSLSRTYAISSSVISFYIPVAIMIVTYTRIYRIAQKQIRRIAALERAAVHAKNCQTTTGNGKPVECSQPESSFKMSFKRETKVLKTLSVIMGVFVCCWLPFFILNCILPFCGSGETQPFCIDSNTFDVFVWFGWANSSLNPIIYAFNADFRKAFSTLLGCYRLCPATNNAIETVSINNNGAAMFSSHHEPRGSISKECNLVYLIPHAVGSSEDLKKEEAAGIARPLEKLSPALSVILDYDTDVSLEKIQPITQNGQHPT

Caspase-1 = molecular target: T2, Caspase-1 (Homo sapiens, UniProt P29466); design: species or system Escherichia coli;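 further: Caspase-1 enzyme inhibition assay with a peptide substrate; in other assays of this panel Not Active means under 50% inhibition at 10 µM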
T2 sequence (P29466 whole entry): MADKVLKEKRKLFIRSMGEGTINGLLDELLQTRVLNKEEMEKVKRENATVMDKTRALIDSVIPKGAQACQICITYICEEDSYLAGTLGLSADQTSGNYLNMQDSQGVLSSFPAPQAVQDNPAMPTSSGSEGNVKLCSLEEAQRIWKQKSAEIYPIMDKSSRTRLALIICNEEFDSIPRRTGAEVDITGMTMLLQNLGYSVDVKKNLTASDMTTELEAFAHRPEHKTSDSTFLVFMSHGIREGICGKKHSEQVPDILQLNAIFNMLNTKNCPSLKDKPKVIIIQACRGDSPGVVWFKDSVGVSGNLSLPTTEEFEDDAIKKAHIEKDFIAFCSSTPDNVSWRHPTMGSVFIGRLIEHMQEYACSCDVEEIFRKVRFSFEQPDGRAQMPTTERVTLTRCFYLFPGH

Cytochrome P450 3A4 = Cytochrome P450 3A4 (Homo sapiens, UniProt P08684); conditions: bti-tn-5b1-4; further: in other assays of this panel Not Active means under 50% inhibition at 10 µM
Chain of Cytochrome P450 3A4 (P08684 whole entry): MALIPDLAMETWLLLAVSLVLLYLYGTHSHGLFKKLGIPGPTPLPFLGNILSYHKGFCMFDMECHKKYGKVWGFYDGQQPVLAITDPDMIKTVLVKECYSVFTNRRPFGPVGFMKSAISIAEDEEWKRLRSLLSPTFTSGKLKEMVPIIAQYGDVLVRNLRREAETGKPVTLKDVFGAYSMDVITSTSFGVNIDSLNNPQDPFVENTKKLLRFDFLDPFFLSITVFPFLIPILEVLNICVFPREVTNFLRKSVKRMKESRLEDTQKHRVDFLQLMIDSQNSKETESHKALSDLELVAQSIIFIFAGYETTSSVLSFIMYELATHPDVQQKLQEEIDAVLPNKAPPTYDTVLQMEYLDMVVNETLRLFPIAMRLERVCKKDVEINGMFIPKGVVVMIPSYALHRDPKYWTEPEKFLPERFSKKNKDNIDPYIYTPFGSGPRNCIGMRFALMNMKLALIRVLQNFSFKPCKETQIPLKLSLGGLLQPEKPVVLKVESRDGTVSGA

Row | SMILES | IC50 ([1]; sf9) | IC50 ([2]; hek293) | IC50 [3] | IC50 (D(1A) dopamine receptor) | IC50 (Caspase-1) | IC50 (Caspase-1; read-out: IC50) [nM] | IC50 (Cytochrome P450 3A4) | Ki (Cytochrome P450 3A4) | IC50 ([1]; read-out: IC50) [nM] | Ki [1] [nM] | IC50 ([2]; read-out: IC50) [nM] | Ki ([2]; read-out: Ki) [nM] | IC50 ([3]; read-out: IC50) [nM] | Ki [3] [nM]
1 | CC#C[C@]1(O)CC[C@H]2[C@@H]3CCC4=CC(=O)CCC4=C3[C@@H](c3ccc(N(C)C)cc3)C[C@@]21C [MIFEPRISTONE] | Not Active | Not Active | Not Active | Not Active | Not Active | – | – | – | – | – | – | – | – | –
2 | CC[C@@]1(O)C(=O)OCc2c1cc1n(c2=O)Cc2cc3c(CN(C)C)c(O)ccc3nc2-1 [TOPOTECAN] | Not Active | Not Active | Not Active | Not Active | Not Active | – | – | – | – | – | – | – | – | –
3 | Nc1nc(N)c2nc(-c3ccccc3)c(N)nc2n1 | Not Active | Not Active | Not Active | Not Active | – | 3660 | – | – | – | – | – | – | – | –
4 | Cc1cc2c(s1)Nc1ccccc1N=C2N1CCN(C)CC1 [OLANZAPINE] | – | Not Active | Not Active | – | Not Active | – | Not Active | Not Active | – | – | – | – | – | –
5 | CC[C@H](C)[C@@H](CO[C@@H](Cc1ccccc1)C(=O)N[C@@H](CCS(C)(=O)=O)C(=O)OC(C)C)NC[C@@H](N)CS | – | Not Active | Not Active | Not Active | Not Active | – | – | – | 432 | 162 | – | – | – | –
6 | CO[C@@]12[C@H](COC(N)=O)C3=C(C(=O)C(C)=C(N)C3=O)N1C[C@@H]1N[C@@H]12 [MITOMYCIN] | Not Active | Not Active | Not Active | Not Active | Not Active | – | Not Active | Not Active | – | – | – | – | – | –
7 | CCOC(=O)C1=C(C)NC(C)=C(C(=O)OCC)C1c1ccccc1/C=C/C(=O)OC(C)(C)C [LACIDIPINE] | Not Active | Not Active | Not Active | Not Active | Not Active | – | – | – | – | – | – | – | – | –
8 | Cc1cn([C@H]2C=C[C@@H](CO)O2)c(=O)[nH]c1=O [STAVUDINE] | Not Active | Not Active | Not Active | Not Active | Not Active | – | Not Active | Not Active | – | – | – | – | – | –
9 | C#C[C@]1(O)CC[C@H]2[C@@H]3[C@H](C)CC4=C(CCC(=O)C4)[C@H]3CC[C@@]21C [TIBOLONE] | Not Active | Not Active | Not Active | Not Active | Not Active | – | Not Active | Not Active | – | – | – | – | – | –
10 | CC(O)C(=O)O (centres undefined) [LACTIC ACID] | Not Active | Not Active | Not Active | Not Active | Not Active | – | Not Active | Not Active | – | – | – | – | – | –
11 | O=C(O)c1cc(/N=N/c2ccc(S(=O)(=O)Nc3ccccn3)cc2)ccc1O [SULFASALAZINE] | Not Active | Not Active | Not Active | Not Active | – | 28800 | Not Active | Not Active | – | – | – | – | – | –
12 | CCN(CC)C(=S)SSC(=S)N(CC)CC | – | Not Active | Not Active | – | Not Active | – | Not Active | Not Active | – | – | – | – | – | –
13 | CNCCCC12CCC(c3ccccc31)c1ccccc12 [MAPROTILINE] | – | Not Active | Not Active | – | Not Active | – | – | – | – | – | – | – | – | –
14 | Cc1ccc(Cl)c(Nc2ccccc2C(=O)O)c1Cl [MECLOFENAMIC ACID] | Not Active | Not Active | Not Active | Not Active | Not Active | – | Not Active | Not Active | – | – | – | – | – | –
15 | CC(C)(C)NC[C@H](O)COc1cccc2c1CCCC2=O [LEVOBUNOLOL] | Not Active | – | Not Active | Not Active | Not Active | – | Not Active | Not Active | – | – | 340 | 255 | – | –
16 | Cc1cccc(C)c1NC(=O)C(C)N (centres undefined) [TOCAINIDE] | Not Active | Not Active | Not Active | Not Active | Not Active | – | Not Active | Not Active | – | – | – | – | – | –
17 | CCOc1cc(N)c(Cl)cc1C(=O)NCC1CN(Cc2ccc(F)cc2)CCO1 (centres undefined) [MOSAPRIDE] | – | Not Active | – | Not Active | Not Active | – | – | – | 3680 | 1380 | – | – | 882 | 147

Row | SMILES | IC50 ([1]; sf9) | IC50 ([2]; hek293) | IC50 [3] | IC50 (D(1A) dopamine receptor) | IC50 (Caspase-1) | IC50 (Caspase-1; read-out: IC50) [nM] | IC50 (Cytochrome P450 3A4) | Ki (Cytochrome P450 3A4) | IC50 ([1]; read-out: IC50) [nM] | Ki [1] [nM] | IC50 ([2]; read-out: IC50) [nM] | Ki ([2]; read-out: Ki) [nM] | IC50 ([3]; read-out: IC50) [nM] | Ki [3] [nM]
18 | Cc1cnc(NC(=O)C2=C(O)c3ccccc3S(=O)(=O)N2C)s1 [MELOXICAM] | Not Active | Not Active | Not Active | Not Active | Not Active | – | Not Active | Not Active | – | – | – | – | – | –
19 | O=C1CC[C@@]2(O)[C@H]3Cc4ccc(O)c5c4[C@@]2(CCN3CC2CC2)[C@H]1O5 [NALTREXONE] | Not Active | Not Active | Not Active | Not Active | Not Active | – | Not Active | Not Active | – | – | – | – | – | –
20 | O=C(c1ccccc1)c1ccc2n1CCC2C(=O)O (centres undefined) [KETOROLAC] | Not Active | Not Active | Not Active | Not Active | Not Active | – | Not Active | Not Active | – | – | – | – | – | –
21 | Oc1ccc(/C=C/c2cc(O)cc(O)c2)cc1 [RESVERATROL] | Not Active | Not Active | Not Active | Not Active | Not Active | – | – | – | – | – | – | – | – | –
22 | CN1C(=O)OC(C)(C)C1=O [TRIMETHADIONE] | Not Active | Not Active | Not Active | Not Active | Not Active | – | Not Active | Not Active | – | – | – | – | – | –
23 | Cc1[nH]c(=O)c(C#N)cc1-c1ccncc1 [MILRINONE] | Not Active | Not Active | Not Active | Not Active | Not Active | – | Not Active | Not Active | – | – | – | – | – | –
24 | C[C@]12CCC(=O)C[C@@H]1CC[C@@H]1[C@@H]2CC[C@]2(C)[C@@H](O)CC[C@@H]12 [STANOLONE] | Not Active | Not Active | Not Active | Not Active | Not Active | – | Not Active | Not Active | – | – | – | – | – | –
25 | CCN(CC)CCNC(=O)c1cc(Cl)c(N)cc1OC [METOCLOPRAMIDE] | – | Not Active | Not Active | Not Active | Not Active | – | Not Active | Not Active | 2720 | 1020 | – | – | – | –
26 | CN(C)CCC=C1c2ccccc2COc2ccccc21 [DOXEPIN] | – | Not Active | Not Active | – | Not Active | – | Not Active | Not Active | – | – | – | – | – | –
27 | COC(=O)Nc1nc2ccc(C(=O)c3ccccc3)cc2[nH]1 [MEBENDAZOLE] | Not Active | Not Active | Not Active | Not Active | Not Active | – | Not Active | Not Active | – | – | – | – | – | –
28 | O=[As][O-].[Na+] [SODIUM ARSENITE] | Not Active | Not Active | Not Active | Not Active | Not Active | – | Not Active | Not Active | – | – | – | – | – | –
29 | CO[C@@H]1[C@@H](OC)[C@H](C)[C@@](O)(CC(=O)O)O[C@H]1[C@H](C)[C@H]1O[C@@]2(CC[C@@](C)([C@H]3CC[C@@](C)([C@@H]4O[C@@H]([C@H]5O[C@](C)(O)[C@H](C)C[C@@H]5C)C[C@@H]4O[C@@H]4C[C@H](OC)[C@@H](OC)[C@H](C)O4)O3)O2)C[C@H](O)[C@H]1C.N [MADURAMICIN] | Not Active | Not Active | Not Active | – | Not Active | – | Not Active | Not Active | – | – | – | – | – | –
30 | Cc1ccc(S(=O)(=O)NC(=O)NN2CCCCCC2)cc1 [TOLAZAMIDE] | Not Active | Not Active | Not Active | Not Active | Not Active | – | – | – | – | – | – | – | – | –
31 | CCC(C)(C)C(=O)O[C@H]1C[C@@H](C)C=C2C=C[C@H](C)[C@H](CC[C@@H]3C[C@@H](O)CC(=O)O3)[C@H]21 [SIMVASTATIN] | Not Active | Not Active | Not Active | Not Active | Not Active | – | – | – | – | – | – | – | – | –
32 | CN1C[C@H](CNC(=O)OCc2ccccc2)C[C@@H]2c3cccc4c3c(cn4C)C[C@H]21 [METERGOLINE] | – | Not Active | – | – | Not Active | – | Not Active | Not Active | – | – | – | – | 1640 | 274
33 | C1CCN2C[C@@H]3C[C@@H](CN4CCCC[C@@H]34)[C@H]2C1 [SPARTEINE] | Not Active | Not Active | Not Active | Not Active | Not Active | – | – | – | – | – | – | – | – | –
